Assay [1] has as its target T1, PRMT5 (Homo sapiens, UniProt O14744).
T1 construct: purchased Viva (custom protein)
As to the kind of experiment: PRMT5 biochemical IC50 assay with no cofactor. The conditions noted are these: PRMT5, no cofactor. The text has this: Table 1 indicates IC50 values (μM) against PRMT5 for exemplary compounds in the presence of SAM as cofactor, with no cofactor, and with MTA as cofactor, respectively (columns 4-6). […] Ki values can be calculated from the IC50 values as described in the Examples section. As detailed in the Examples section, for the assay performed in the presence of SAM, IC50=Ki×1.5 (Ki=IC50/1.5).

Assay [2] concerns the target T1, PRMT5. As to the kind of experiment: PRMT5 biochemical IC50 assay with SAM as cofactor. The conditions noted are these: PRMT5, SAM as cofactor; read-out: SAM IC50.
Assay [3] has as its system HAP1 MTAP-deleted cell line. As to the kind of experiment: Viability assay, MTAP-deleted cell line. The format is cell-based. The settings on record: Homo sapiens, read-out: HAP1 MTAP deleted viability. The source says: Table 1 additionally indicates IC50 values in a viability assay for the MTAP-deleted cell line (column 10), indicating the effect of treatment with compound on cell survival.

Assay [4] concerns the target T1, PRMT5. The assay can be described thus: PRMT5 biochemical IC50 assay with MTA as cofactor. The conditions noted are these: PRMT5, MTA as cofactor; read-out: MTA IC50.
Assay [5] deals with HAP1 MTAP-intact cell line. As to the kind of experiment: SDMA in-cell western assay, HAP1 MTAP-intact. Type of assay: cell-based. The settings on record: Homo sapiens, HAP1, SDMA in-cell western, HAP1 MTAP-intact; read-out: MTAP HAP1 intact IC50. In a few lines:
(§1)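 Readout: in-cell western detection of SDMA. Cells: HAP1 expressing endogenous MTAP and an MTAP-null HAP1 counterpart. Output: IC50.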

Assay [6] deals with HAP1 MTAP-deleted cell line. The assay can be described thus: SDMA in-cell western assay, HAP1 MTAP-deleted. The format is cell-based. The settings on record: for IC50: Homo sapiens, HAP1, SDMA in-cell western, HAP1 MTAP-deleted; for MTAP intact/deleted ratio: SDMA in-cell western. In short, it runs like this: as §1
Where [7] appears, read: read-out: HAP 1 MTAP deleted IC50.
[8] abbreviates: IC50 ratio HAP1 MTAP-intact / HAP1 MTAP-deleted.
Setting [9] is: HAP1, viability assay, MTAP-deleted cell line.
Where [10] appears, read: read-out: HAP1 MTAP deleted IC50.
[11] abbreviates: IC50 ratio HAP1 MTAP-intact vs HAP1 MTAP-deleted.
[12] abbreviates: read-out: No Cofactor/ rel IC50.
The mark [13] stands for this setting: HAP1, viability, HAP1 MTAP-deleted cell line.

T1 sequence (O14744 whole entry): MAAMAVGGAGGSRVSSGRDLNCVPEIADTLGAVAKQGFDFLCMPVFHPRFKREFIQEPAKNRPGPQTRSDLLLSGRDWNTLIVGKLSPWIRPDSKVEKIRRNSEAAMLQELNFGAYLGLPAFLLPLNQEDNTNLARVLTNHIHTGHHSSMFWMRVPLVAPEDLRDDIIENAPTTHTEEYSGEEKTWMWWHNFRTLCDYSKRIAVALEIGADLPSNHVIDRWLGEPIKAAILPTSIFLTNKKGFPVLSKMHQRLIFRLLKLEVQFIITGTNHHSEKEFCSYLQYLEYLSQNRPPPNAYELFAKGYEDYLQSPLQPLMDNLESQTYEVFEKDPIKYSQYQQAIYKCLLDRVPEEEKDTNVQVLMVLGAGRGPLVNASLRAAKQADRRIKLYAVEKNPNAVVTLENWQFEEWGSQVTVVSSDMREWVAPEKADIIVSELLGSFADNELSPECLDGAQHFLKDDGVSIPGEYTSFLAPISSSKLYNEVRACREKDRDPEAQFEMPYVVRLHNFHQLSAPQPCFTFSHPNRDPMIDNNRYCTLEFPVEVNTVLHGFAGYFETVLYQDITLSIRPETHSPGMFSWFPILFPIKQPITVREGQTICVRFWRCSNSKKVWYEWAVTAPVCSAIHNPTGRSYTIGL
T1 sequence (Q9BQA1 whole entry partner): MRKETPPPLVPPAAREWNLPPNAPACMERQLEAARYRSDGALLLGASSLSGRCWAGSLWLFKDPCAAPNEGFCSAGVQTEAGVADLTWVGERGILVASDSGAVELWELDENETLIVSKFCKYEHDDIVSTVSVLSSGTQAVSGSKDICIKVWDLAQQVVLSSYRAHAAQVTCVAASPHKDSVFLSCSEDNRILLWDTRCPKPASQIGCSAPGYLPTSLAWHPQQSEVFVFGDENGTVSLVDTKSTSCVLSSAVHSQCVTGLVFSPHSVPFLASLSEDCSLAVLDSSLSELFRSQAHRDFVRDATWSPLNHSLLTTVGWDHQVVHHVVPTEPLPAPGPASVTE

With `CC[C@@H]1CC[C@H](c2ccccc2)N(C(=O)C(=O)Nc2cncc(C(N)=O)c2)C1` (single isomer, unassigned) [Compound 565], the IC50 is above 0.5 µM on PRMT5 [1] (read-out: No Cofactor/rel IC50); 0.05 to 0.5 µM at PRMT5 [2]; above 10 µM in assay [3] (HAP1, viability IC50, MTAP-deleted cell line); 0.05 to 0.5 µM at PRMT5 [4]; above 1 µM in assay [5]; 0.1 to 1 µM in assay [6] (setting [7]). Also, in assay [6] (setting [8]), the MTAP intact/deleted ratio result is reported as “A (an IC50 ratio greater than or equal to 10 fold)”.

For `CCc1cc(NC(=O)C(=O)N2C[C@@H](C)CC[C@@H]2c2ccc3sc([C@H]4CCN(C)C(C)(C)C4)nc3c2)cnc1N` [Compound 1125, N-(6-amino-5-ethylpyridin-3-yl)-2-((2R,5S)-5-methyl-2-(2-(1,2,2-trimethylpiperidin-4-yl)benzo[d]thiazol-5-yl)piperidin-1-yl)-2-oxoacetamide], the IC50 at PRMT5 [1] (read-out: No Cofactor/rel IC50) was below 0.05 µM; at PRMT5 [2] it was below 0.05 µM; in assay [3] (setting [9]), below 1 µM; at PRMT5 [4], below 0.05 µM; in assay [5] it was below 0.1 µM; in assay [6] (setting [10]) it was below 0.1 µM. Moreover, in assay [6] (setting [11]), the MTAP intact/deleted ratio result was “A (an IC50 ratio greater than or equal to 10 fold)”.

For `COc1ncc(NC(=O)C(=O)N2C[C@H](C)CC[C@H]2c2ccc(N)nc2)cc1C(N)=O` (single isomer, unassigned) [Compound 471], the IC50 at PRMT5 [1] (read-out: No Cofactor/rel IC50) is above 0.5 µM; on PRMT5 [2] it was above 0.5 µM; in assay [3] (setting [9]), above 10 µM; at PRMT5 [4], above 0.5 µM; in assay [5], above 1 µM; in assay [6] (setting [10]), above 1 µM. The MTAP intact/deleted ratio result in assay [6] (setting [8]) is “C (an IC50 ratio of less than 3 fold)”.

As to `Cc1cc([C@@H]2CC[C@@H](C)CN2C(=O)C(=O)Nc2cncc(C(N)=O)c2)ccc1O` (single isomer, unassigned) [Compound 323], the IC50 is below 0.05 µM at PRMT5 [1] (read-out: No Cofactor/rel IC50); 0.05 to 0.5 µM at PRMT5 [2]; below 1 µM in assay [3] (setting [9]); below 0.05 µM on PRMT5 [4]; 0.1 to 1 µM in assay [5]; below 0.1 µM in assay [6] (setting [10]). Also, the MTAP intact/deleted ratio result in assay [6] (setting [8]) is recorded as “A (an IC50 ratio greater than or equal to 10 fold)”.

For `CC(=O)N1CCC(c2nc3cc([C@H]4CC[C@H](C)CN4C(=O)C(=O)Nc4cnc(N)c(C)c4)ccc3s2)CC1` [Compound 1093, 2-((2R,5S)-2-(2-(1-acetylpiperidin-4-yl)benzo[d]thiazol-5-yl)-5-methylpiperidin-1-yl)-N-(6-amino-5-methylpyridin-3-yl)-2-oxoacetamide], the IC50 at PRMT5 [1] (read-out: No Cofactor/rel IC50) was below 0.05 µM; on PRMT5 [2], below 0.05 µM; in assay [3] (setting [9]) it was below 1 µM; on PRMT5 [4], below 0.05 µM; in assay [5] it was below 0.1 µM; in assay [6] (setting [10]), below 0.1 µM. Further, the MTAP intact/deleted ratio entry in assay [6] (setting [11]) was “A (an IC50 ratio greater than or equal to 10 fold)”.

Consider `C[C@@H]1CC[C@@H](c2ccc3cncn3c2)N(C(=O)C(=O)Nc2cnc(N)c(C3CC3)c2)C1` (single isomer, unassigned) [Compound 1336, N-(6-amino-5-cyclopropylpyridin-3-yl)-2-(2-(imidazo[1,5-a]pyridin-6-yl)-5-methylpiperidin-1-yl)-2-oxoacetamide], for which the IC50 on PRMT5 [1] (setting [12]) was above 0.5 µM; on PRMT5 [2], above 0.5 µM; in assay [3] (setting [13]), 1 to 10 µM; on PRMT5 [4], above 0.5 µM; in assay [5], above 1 µM; in assay [6] (setting [7]) it was 0.1 to 1 µM.

As to `CCc1cc(NC(=O)C(=O)N2C[C@@H](C)CC[C@@H]2c2cccc(OC[C@@H]3CCCN3C)c2)cnc1N` [Compound 1362, N-(6-amino-5-ethylpyridin-3-yl)-2-((2R,5S)-5-methyl-2-(3-((1-methylpyrrolidin-2-yl)methoxy)phenyl)piperidin-1-yl)-2-oxoacetamide], the IC50 at PRMT5 [1] (setting [12]) was below 0.05 µM; at PRMT5 [2], 0.05 to 0.5 µM; in assay [3] (setting [13]), below 1 µM; at PRMT5 [4], below 0.05 µM; in assay [5] it was 0.1 to 1 µM; in assay [6] (setting [7]) it was below 0.1 µM. For the same compound, the “MTAP intact/deleted ratio” value in assay [6] (setting [8]) is reported as “A (an IC50 ratio greater than or equal to 10 fold)”.

As to `CNc1nc2cc([C@@H]3CC[C@@H](C)CN3C(=O)C(=O)Nc3cnc(OC)c(C(N)=O)c3)ccc2s1` (single isomer, unassigned) [Compound 875], the IC50 at PRMT5 [1] (read-out: No Cofactor/rel IC50) is above 0.5 µM; at PRMT5 [2], above 0.5 µM; in assay [3] (HAP1, viability assay, HAP1 MTAP-deleted), above 10 µM; on PRMT5 [4] it was above 0.5 µM; in assay [5] it was above 1 µM; in assay [6] (setting [10]), above 1 µM. Also, the MTAP intact/deleted ratio entry in assay [6] (setting [8]) is reported as “B (an IC50 ratio greater than or equal to 3 fold but lower than 10 fold)”.

On to `Cc1cc(NC(=O)C(=O)N2CC(C)(C)CCC2c2ccccc2)cnc1N` (racemic) [Compound 56, N-(6-amino-5-methylpyridin-3-yl)-2-(5,5-dimethyl-2-phenylpiperidin-1-yl)-2-oxoacetamide], for which the IC50 at PRMT5 [1] (setting [12]) was 0.05 to 0.5 µM; at PRMT5 [2], 0.05 to 0.5 µM; in assay [3] (setting [9]), 1 to 10 µM; at PRMT5 [4], 0.05 to 0.5 µM; in assay [5], 0.1 to 1 µM; in assay [6] (setting [7]), below 0.1 µM. Further, the “MTAP intact/deleted ratio” value in assay [6] (setting [8]) was “B (an IC50 ratio greater than or equal to 3 fold but lower than 10 fold)”.

On to `Cc1cc(NC(=O)C(=O)N2C[C@@H](C)CC[C@@H]2c2cccc(C(F)(F)F)c2)cnc1N` (single isomer, unassigned) [Compound 507], for which the IC50 was above 0.5 µM on PRMT5 [1] (read-out: No Cofactor/rel IC50); above 0.5 µM on PRMT5 [2]; above 10 µM in assay [3] (setting [9]); above 0.5 µM on PRMT5 [4]; above 1 µM in assay [5]; above 1 µM in assay [6] (setting [10]). In addition, the MTAP intact/deleted ratio entry in assay [6] (setting [8]) is reported as “C (an IC50 ratio of less than 3 fold)”.

Consider `C[C@H]1CC[C@H](c2ccc3c(c2)C[C@H](C)O3)N(C(=O)C(=O)Nc2cncc(C(N)=O)c2)C1` (single isomer, unassigned) [Compound 376], for which the IC50 is above 0.5 µM on PRMT5 [1] (read-out: No Cofactor/rel IC50); above 0.5 µM at PRMT5 [2]; above 10 µM in assay [3] (setting [9]); above 0.5 µM at PRMT5 [4]; above 1 µM in assay [5]; above 1 µM in assay [6] (setting [10]). Also, the MTAP intact/deleted ratio entry in assay [6] (setting [8]) is recorded as “C (an IC50 ratio of less than 3 fold)”.

`C[C@@H]1CC[C@@H](c2ccc(C(F)(F)F)cc2)N(C(=O)C(=O)Nc2cncc(C(N)=O)c2)C1` (racemic) [Compound 251, rac-5-{2-[(2R,5S)-5-Methyl-2-[4-(trifluoromethyl)phenyl]piperidin-1-yl]-2-oxoacetamido}pyridine-3-carboxamide]: the IC50 at PRMT5 [1] (read-out: No Cofactor/rel IC50) was 0.05 to 0.5 µM; at PRMT5 [2] it was 0.05 to 0.5 µM; in assay [3] (setting [9]), 1 to 10 µM; at PRMT5 [4], below 0.05 µM; in assay [5] it was above 1 µM; in assay [6] (setting [10]), below 0.1 µM. Besides, in assay [6] (setting [8]), the MTAP intact/deleted ratio entry was “A (an IC50 ratio greater than or equal to 10 fold)”.

Take `CCc1cc(NC(=O)C(=O)N2C[C@@H](C)CC[C@@H]2c2ccc3sc(C(C)(C)N(C)C)nc3c2)cnc1N` [Compound 1237, N-(6-amino-5-ethylpyridin-3-yl)-2-((2R,5S)-2-(2-(2-(dimethylamino)propan-2-yl)benzo[d]thiazol-5-yl)-5-methylpiperidin-1-yl)-2-oxoacetamide]: the IC50 at PRMT5 [1] (read-out: No Cofactor/rel IC50) is below 0.05 µM; on PRMT5 [2] it was 0.05 to 0.5 µM; in assay [3] (setting [9]) it was below 1 µM; at PRMT5 [4], below 0.05 µM; in assay [5], below 0.1 µM; in assay [6] (setting [10]), below 0.1 µM. The MTAP intact/deleted ratio result in assay [6] (setting [11]) was “A (an IC50 ratio greater than or equal to 10 fold)”.

The record behind these values is patent US11999727B2 (Tango Therapeutics, Inc., priority 2020, dated 2024).
